From patent US20210015098A1, “MOLECULES HAVING PESTICIDAL UTILITY, AND INTERMEDIATES, COMPOSITIONS, AND PROCESSES, RELATED THERETO” (DOW AGROSCIENCES LLC, priority 2018, published 2021)

What was measured:
Type in all cases: in vivo
[1] = tested on: Yellow Fever Mosquito (Aedes aegypti, AEDSAE); details: for YFM (rating): Yellow Fever Mosquito, Table ABC Biological Results
Experimental: Certain molecules disclosed in this document were tested against YFM using procedures described in the following paragraph. In the reporting of the results, the “GPA & YFM Rating Table” was used (See Table Section).
Master plates containing 400 μg of a molecule dissolved in 100 μL of dimethyl sulfoxide (DMSO) (equivalent to a 4000 ppm solution) are used. A master plate of assembled molecules contains 15 μL per well. To this plate, 135 μL of a 90:10 water/acetone mixture is added to each well. A robot (Biomek® NXP Laboratory Automation Workstation) is programmed to dispense 15 μL aspirations from the master plate into an empty 96-well shallow plate (“daughter” plate). There are 6 reps (“daughter” plates) created per master. The created “daughter” plates are then immediately infested with YFM larvae.
The day before plates are to be treated, mosquito eggs are placed in Millipore water containing liver powder to begin hatching (4 g into 400 mL). After the “daughter” plates are created using the robot, they are infested with 220 μL of the liver powder/larval mosquito mixture (about 1 day-old larvae). After plates are infested with mosquito larvae, a non-evaporative lid is used to cover the plate to reduce drying. Plates are held at room temperature for 3 days prior to grading. After 3 days, each well is observed and scored based on mortality. The results are indicated in the table entitled “Table ABC: Biological Results” (See Table Section).

[2] = tested on: Beet Armyworm (Spodoptera exigua, LAPHEG); experiment: Bioassays on Beet Armyworm (BAW), 128-well diet tray assay; details: for pest or weed control at 50 µg/cm2: Beet Armyworm, Table ABC Biological Results, read-out: BAW (rating)
Method in brief: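 Mortality of second-instar larvae (1–5/well) on artificial diet treated with 50 μg/cm^2 compound, read after 5–7 days at 25° C.; values are means of eight wells.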

[3] = tested on: Cabbage Looper (Trichoplusia ni, TRIPNI); experiment: Bioassays on Cabbage Looper (CL), 128-well diet tray assay; details: for pest or weed control at 50 µg/cm2: Cabbage Looper, Table ABC Biological Results, read-out: CL (rating)
Method in brief: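 Each of eight wells receives artificial diet treated at 50 μg/cm^2 with the test molecule, then one to five second-instar larvae. Incubation runs five to seven days at 25° C with a 14:10 light-dark cycle under vented covers. Mortality is scored per well as a percentage and averaged.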

SMILES | YFM (rating) [1] | pest or weed control at 50 µg/cm2 [2] [%] | pest or weed control at 50 µg/cm2 [3] [%] | YFM % Control (or Mortality) rating ([1]; about 1 day-old larvae, 96-well plate, room temperature, 3 days) | mortality at 50 µg/cm2 ([2]; 168 h, 50 μg/cm^2 on artificial diet, second instar larvae, 25° C., five to seven days, read-out: BAW % Control (or Mortality) rating) [%] | mortality at 50 µg/cm2 ([3]; 168 h, 50 μg/cm^2 on artificial diet, second instar larvae, 25° C., five to seven days, read-out: CL % Control (or Mortality) rating) [%]
CC(SC(F)(F)F)C(=O)Nc1c(F)ccc(NC(=O)c2cc(NC(=O)[C@H]3[C@H](c4ccc(F)c(C(F)(F)F)c4)C3(Cl)Cl)ccc2Cl)c1F (stereo partly drawn) [F16, 2-Chloro-5-((1R,3R)-2,2-dichloro-3-(4-fluoro-3-(trifluoromethyl)phenyl)cyclopropane-1-carboxamido)-N-(2,4-difluoro-3-(2-((trifluoromethyl)thio)propanamido)phenyl)benzamide] | A (80-100) | 50 to 100 | 50 to 100 |  |  | 
CCSC(C)C(=O)Nc1c(F)ccc(NC(=O)c2cc(NC(=O)[C@H]3[C@H](c4ccc(F)c(C(F)(F)F)c4)C3(Cl)Cl)ccc2Cl)c1F (stereo partly drawn) [F18, 2-Chloro-5-((1R,3R)-2,2-dichloro-3-(4-fluoro-3-(trifluoromethyl)phenyl)cyclopropane-1-carboxamido)-N-(3-(2-(ethylthio)propanamido)-2,4-difluorophenyl)benzamide] | A (80-100) | 50 to 100 | 50 to 100 |  |  | 
CSCCCC(=O)Nc1c(F)ccc(NC(=O)c2cc(NC(=O)[C@H]3[C@H](c4ccc(F)c(C(F)(F)F)c4)C3(Cl)Cl)ccc2Cl)c1F [F25, 2-Chloro-5-((1R,3R)-2,2-dichloro-3-(4-fluoro-3-(trifluoromethyl)phenyl)cyclopropane-1-carboxamido)-N-(2,4-difluoro-3-(4-(methylthio)butanamido)phenyl)benzamide] | A (80-100) | 50 to 100 | 50 to 100 |  |  | 
CCSCC(=O)Nc1c(F)ccc(NC(=O)c2cc(NC(=O)[C@H]3[C@H](c4ccc(F)c(C(F)(F)F)c4)C3(Cl)Cl)ccc2Cl)c1F [F19, 2-Chloro-5-((1R,3R)-2,2-dichloro-3-(4-fluoro-3-(trifluoromethyl)phenyl)cyclopropane-1-carboxamido)-N-(3-(2-(ethylthio)acetamido)-2,4-difluorophenyl)benzamide] | A (80-100) | 50 to 100 | 50 to 100 |  |  | 
CSCCC(=O)Nc1c(F)ccc(NC(=O)c2cc(NC(=O)[C@H]3[C@H](c4ccc(F)c(C(F)(F)F)c4)C3(Cl)Cl)ccc2Cl)c1F [F24, 2-Chloro-5-((1R,3R)-2,2-dichloro-3-(4-fluoro-3-(trifluoromethyl)phenyl)cyclopropane-1-carboxamido)-N-(2,4-difluoro-3-(3-(methylthio)propanamido)phenyl)benzamide] | A (80-100) | 50 to 100 | 50 to 100 |  |  | 
CCSCCC(=O)Nc1c(F)ccc(NC(=O)c2cc(NC(=O)[C@H]3[C@H](c4ccc(F)c(C(F)(F)F)c4)C3(Cl)Cl)ccc2Cl)c1F [F23, 2-Chloro-5-((1R,3R)-2,2-dichloro-3-(4-fluoro-3-(trifluoromethyl)phenyl)cyclopropane-1-carboxamido)-N-(3-(3-(ethylthio)propanamido)-2,4-difluorophenyl)benzamide] | A (80-100) | 50 to 100 | 50 to 100 |  |  | 
Nc1c(F)ccc(NC(=O)c2cc(NC(=O)[C@H]3[C@H](c4cc(F)cc(C(F)(F)F)c4)C3(Cl)Cl)ccc2Cl)c1F [DP8, N-(3-Amino-2,4-difluorophenyl)-2-chloro-5-((1R,3R)-2,2-dichloro-3-(3-fluoro-5-(trifluoromethyl)phenyl)cyclopropane-1-carboxamido)benzamide] |  |  |  | A (80-100) | 50 to 100 | 50 to 100
O=C(C[S+]([O-])CC(F)(F)F)Nc1c(F)ccc(NC(=O)c2cc(NC(=O)[C@H]3[C@H](c4ccc(F)c(C(F)(F)F)c4)C3(Cl)Cl)ccc2Cl)c1F (stereo partly drawn) [F32, 2-Chloro-5-((1R,3R)-2,2-dichloro-3-(4-fluoro-3-(trifluoromethyl)phenyl)cyclopropane-1-carboxamido)-N-(2,4-difluoro-3-(2-((2,2,2-trifluoroethyl)sulfinyl)acetamido)phenyl)benzamide] | A (80-100) | 50 to 100 | 50 to 100 |  |  | 
